This is an account of results in patent publication US12421254B2, “KRAS modulators and uses thereof” (Quanta Therapeutics, Inc., priority 2023, dated 2025).

pIC50: −log10 of the molar value.

For experiment [1], the target named is GST-tagged KRAS-G12V (2-169) (Homo sapiens, UniProt P01116, G12V). The experiment can be described thus: Nucleotide exchange assay (NEA), SOS-mediated, HTRF, KRAS G12V. It is filed as biochemical. Conditions: Table 4; IC50 extracted at 90 min; 80 nM SOS. A digest of the protocol:
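Exchange onto fluorescent GTP-DY-647P1 (150 nM final) catalysed by 80 nM SOS1cat was followed by Tb-anti-GST HTRF at RT for up to 90 min, after 1 h compound pre-incubation with 0.25 nM GST-tagged KRAS-G12V (2-169), pH 7.3. DMSO = 0%, no-SOS blank = 100%; 4-parameter IC50 taken at 90 min.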

The target of experiment [2] is GST-tagged KRAS-G12D (2-169) (Homo sapiens, UniProt P01116, G12D). The experiment can be described thus: Nucleotide exchange assay (NEA), SOS-mediated, HTRF, KRAS G12D. It is filed as biochemical. The following applies: Table 4; IC50 extracted at 30 min; 20 nM SOScat; read-out: NEA G12D IC50. The gist of the method:
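SOS1cat-driven loading of fluorescent GTP-DY-647P1 (150 nM) onto GST-KRAS-G12D (2-169, 0.25 nM) read by time-resolved FRET; SOScat 20 nM, compound preincubated with KRAS 1 h at RT. Signal blanked to no-SOS reactions, normalized to DMSO; IC50 fitted from the 30-min read.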

Chain of GST-tagged KRAS-G12D (2-169) (P01116 2-169 isoform P01116-2 G12D): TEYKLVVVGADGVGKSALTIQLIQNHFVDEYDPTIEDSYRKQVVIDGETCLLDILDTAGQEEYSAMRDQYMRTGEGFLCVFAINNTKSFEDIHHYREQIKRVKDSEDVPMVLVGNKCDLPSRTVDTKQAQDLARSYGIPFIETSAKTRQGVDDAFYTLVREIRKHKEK
Chain of GST-tagged KRAS-G12V (2-169) (P01116 2-169 isoform P01116-2 G12V): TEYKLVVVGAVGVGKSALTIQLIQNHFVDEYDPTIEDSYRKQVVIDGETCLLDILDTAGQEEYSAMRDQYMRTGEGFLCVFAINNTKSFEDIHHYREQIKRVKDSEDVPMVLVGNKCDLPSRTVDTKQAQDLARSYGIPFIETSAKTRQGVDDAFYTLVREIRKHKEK

As to `C[C@H](c1ccc(P(C)(C)=O)nc1N)N(C)c1nc(OC[C@@]23CCCN2C[C@H](F)C3)nc(N2CC3(C2)SCc2sc(N)c(C#N)c23)n1` [Compound 232, 2-amino-1′-[4-[1-(2-amino-6-dimethylphosphoryl-3-pyridyl)ethyl-methyl-amino]-6-[[(2R,8S)-2-fluoro-1,2,3,5,6,7-hexahydropyrrolizin-8-yl]methoxy]-1,3,5-triazin-2-yl]spiro[6H-thieno[3,4-b]thiophene-4,3′-azetidine]-3-carbonitrile], the values for the pIC50 in experiment [1] and in experiment [2] were 6.00 to 7.00 and 4.70 to 6.00, respectively.

Consider `N#Cc1c(N)sc2c1C1(CN(c3nc(OC[C@@]45CCCN4C[C@H](F)C5)nc(N4[C@@H]5CC[C@H]4C[C@H](O)C5)n3)C1)SC2` [Compound 275, 2-amino-1′-[4-[[(2R,8S)-2-fluoro-1,2,3,5,6,7-hexahydropyrrolizin-8-yl]methoxy]-6-[(1S,5R)-3-hydroxy-8-azabicyclo[3.2.1]octan-8-yl]-1,3,5-triazin-2-yl]spiro[6H-thieno[3,4-b]thiophene-4,3′-azetidine]-3-carbonitrile], for which the pIC50 in experiment [1] and in experiment [2] was 6.00 to 7.00 throughout.

For the compound `CCN(c1nc(OC[C@@]23CCCN2C[C@H](F)C3)nc(N2CC3(C2)SCc2sc(N)c(C#N)c23)n1)C(C)c1cccnc1N` (stereo partly drawn) [Compound 144, 2-amino-1′-[4-[1-(2-amino-3-pyridyl)ethyl-ethyl-amino]-6-[[(2R,8S)-2-fluoro-1,2,3,5,6,7-hexahydropyrrolizin-8-yl]methoxy]-1,3,5-triazin-2-yl]spiro[6H-thieno[3,4-b]thiophene-4,3′-azetidine]-3-carbonitrile], the negative-log IC50 (pIC50) in experiment [1] and in experiment [2] was greater than 8.00 in each case.

As to `C[C@@]1(O)CCCN(c2nc(OC[C@@]34CCCN3C[C@H](F)C4)nc(N3CC4(C3)c3c(sc(N)c3C#N)C[S+]4[O-])n2)C1` (stereo partly drawn) [Compound 126, 2-amino-5-oxo-1′-[4-[[(2R,8S)-2-fluoro-1,2,3,5,6,7-hexahydropyrrolizin-8-yl]methoxy]-6-[(3R)-3-hydroxy-3-methyl-1-piperidyl]-1,3,5-triazin-2-yl]spiro[6H-thieno[3,4-b]thiophene-4,3′-azetidine]-3-carbonitrile], the pIC50 in experiment [1] was 4.70 to 6.00; in experiment [2] it was 7.00 to 8.00.

With `CC(c1nccnc1N)N(C)c1nc(OC[C@@]23CCCN2C[C@H](F)C3)nc(N2CC3(CCc4sc(N)c(C#N)c43)C2)n1` (stereo partly drawn) [Compound 102, 2-amino-1′-[4-[1-(3-aminopyrazin-2-yl)ethyl-methyl-amino]-6-[[(2R,8S)-2-fluoro-1,2,3,5,6,7-hexahydropyrrolizin-8-yl]methoxy]-1,3,5-triazin-2-yl]spiro[5,6-dihydrocyclopenta[b]thiophene-4,3′-azetidine]-3-carbonitrile], the pIC50 in experiment [1] was greater than 8.00; in experiment [2] it was 7.00 to 8.00.

As to `N#Cc1c(N)sc2c1C1(CC2)CN(c2nc(OC[C@@]34CCCN3C[C@H](F)C4)nc(N3CCC[C@H](C#N)[C@@H]3CO)n2)C1` (racemic) [Compound 63, 2-amino-1′-[4-[rac-(2R,3S)-3-cyano-2-(hydroxymethyl)-1-piperidyl]-6-[[(2R,8S)-2-fluoro-1,2,3,5,6,7-hexahydropyrrolizin-8-yl]methoxy]-1,3,5-triazin-2-yl]spiro[3a,5-dihydrocyclopenta[b]thiophene-4,3′-azetidine]-3-carbonitrile], the pIC50 in experiment [1] and in experiment [2] was 6.00 to 7.00 each time.

With `CN(c1nc(OC[C@@]23CCCN2C[C@H](F)C3)nc(N2CC3(C2)SCc2sc(N)c(C#N)c23)n1)[C@H]1[C@H]2CN[C@@H]1C2` [Compound 257, 2-amino-1′-[4-[[(1R,4R,5S)-2-azabicyclo[2.1.1]hexan-5-yl]-methyl-amino]-6-[[(2R,8S)-2-fluoro-1,2,3,5,6,7-hexahydropyrrolizin-8-yl]methoxy]-1,3,5-triazin-2-yl]spiro[6H-thieno[3,4-b]thiophene-4,3′-azetidine]-3-carbonitrile], the values for the pIC50 in experiment [1] and in experiment [2] were 7.00 to 8.00 and greater than 8.00, respectively.

With `CC(c1cccnc1N)N(C)c1nc(OC[C@@]23CCCN2C[C@H](F)C3)nc(N2CC3(C2)SCc2sc(N)c(C#N)c23)n1` (stereo partly drawn) [Compound 115, 2-amino-1′-[4-[1-(2-amino-3-pyridyl)ethyl-methyl-amino]-6-[[(2R,8S)-2-fluoro-1,2,3,5,6,7-hexahydropyrrolizin-8-yl]methoxy]-1,3,5-triazin-2-yl]spiro[6H-thieno[3,4-b]thiophene-4,3′-azetidine]-3-carbonitrile], the pIC50 in experiment [1] and in experiment [2] was greater than 8.00 in each case.

`CCN(c1nc(OC[C@]2(C(F)F)CCCN2)nc(N2CC3(C2)SCc2sc(N)c(C#N)c23)n1)[C@H](C)c1cccnc1N` [Compound 221, 2-amino-1′-[4-[[(1R)-1-(2-amino-3-pyridyl)ethyl]-ethyl-amino]-6-[[(2S)-2-(difluoromethyl)pyrrolidin-2-yl]methoxy]-1,3,5-triazin-2-yl]spiro[6H-thieno[3,4-b]thiophene-4,3′-azetidine]-3-carbonitrile]: the pIC50 in experiment [1] and in experiment [2] was greater than 8.00 each time.

With `CC1(O)COCCN(c2nc(OC[C@@]34CCCN3C[C@H](F)C4)nc(N3CC4(C3)SCc3sc(N)c(C#N)c34)n2)C1` (stereo partly drawn) [Compound 268, 2-amino-1′-[4-[[(2R,8S)-2-fluoro-1,2,3,5,6,7-hexahydropyrrolizin-8-yl]methoxy]-6-(6-hydroxy-6-methyl-1,4-oxazepan-4-yl)-1,3,5-triazin-2-yl]spiro[6H-thieno[3,4-b]thiophene-4,3′-azetidine]-3-carbonitrile], the pIC50 in experiment [1] and in experiment [2] was greater than 8.00 each time.

With `N#Cc1c(N)sc2c1C1(CC2)CN(c2nc(OC[C@@]34CCCN3C[C@H](F)C4)nc(N3CCC4CC4(CO)C3)n2)C1` (stereo partly drawn) [Compound 41, 2-amino-1′-[4-[[(2R,8S)-2-fluoro-1,2,3,5,6,7-hexahydropyrrolizin-8-yl]methoxy]-6-[1-(hydroxymethyl)-3-azabicyclo[4.1.0]heptan-3-yl]-1,3,5-triazin-2-yl]spiro[5,6-dihydrocyclopenta[b]thiophene-4,3′-azetidine]-3-carbonitrile], the pIC50 in experiment [1] is 6.00 to 7.00; in experiment [2], 4.70 to 6.00.

As to `COC[C@@H]1CC[C@@H](COc2nc(N3CC4(C3)SCc3sc(N)c(C#N)c34)nc(N(CC(F)F)C(C)c3cccnc3N)n2)N1` (mixture of isomers) [Compound 211, 2-amino-1′-[4-[[(1R)-1-(2-amino-3-pyridyl)ethyl]-(2,2-difluoroethyl)amino]-6-[[(2SR,5SR)-5-(methoxymethyl)pyrrolidin-2-yl]methoxy]-1,3,5-triazin-2-yl]spiro[6H-thieno[3,4-b]thiophene-4,3′-azetidine]-3-carbonitrile], the pIC50 in experiment [1] and in experiment [2] was greater than 8.00 in each case.

Consider `C[C@]1(O)C[C@@H](O)CN(c2nc(OC[C@@]34CCCN3C[C@H](F)C4)nc(N3CC4(CCc5sc(N)c(C#N)c54)C3)n2)C1` [Compound 46, 2-amino-1′-[4-[(3S,5R)-3,5-dihydroxy-3-methyl-1-piperidyl]-6-[[(2R,8S)-2-fluoro-1,2,3,5,6,7-hexahydropyrrolizin-8-yl]methoxy]-1,3,5-triazin-2-yl]spiro[5,6-dihydrocyclopenta[b]thiophene-4,3′-azetidine]-3-carbonitrile], for which the pIC50 is 7.00 to 8.00 in experiment [1] and 6.00 to 7.00 in experiment [2].

For the compound `N#Cc1c(N)sc2c1C1(CN(c3nc(OC[C@@]45CCCN4C[C@H](F)C5)nc(N4C5CCC4CC(=O)C5)n3)C1)SC2` [Compound 273, 2-amino-1′-[4-[[(2R,8S)-2-fluoro-1,2,3,5,6,7-hexahydropyrrolizin-8-yl]methoxy]-6-(3-oxo-8-azabicyclo[3.2.1]octan-8-yl)-1,3,5-triazin-2-yl]spiro[6H-thieno[3,4-b]thiophene-4,3′-azetidine]-3-carbonitrile], the pIC50 in experiment [1] was 7.00 to 8.00; in experiment [2], 6.00 to 7.00.

As for `CC(c1ccnn1C)N(C)c1nc(OC[C@@]23CCCN2C[C@H](F)C3)nc(N2CC3(CCc4sc(N)c(C#N)c43)C2)n1` (stereo partly drawn) [Compound 125, 2-amino-1′-[4-[[(2R,8S)-2-fluoro-1,2,3,5,6,7-hexahydropyrrolizin-8-yl]methoxy]-6-[methyl-[i-(2-methylpyrazol-3-yl)ethyl]amino]-1,3,5-triazin-2-yl]spiro[5,6-dihydrocyclopenta[b]thiophene-4,3′-azetidine]-3-carbonitrile], the pIC50 in experiment [1] is 7.00 to 8.00; in experiment [2], 4.70 to 6.00.

`N#Cc1c(N)sc2c1C1(CN(c3nc(OC[C@@]45CCCN4C[C@H](F)C5)nc(N(Cc4cccnc4N)C4COC4)n3)C1)SC2` [Compound 217, 2-amino-1′-[4-[(2-amino-3-pyridyl)methyl-(oxetan-3-yl)amino]-6-[[(2R,8S)-2-fluoro-1,2,3,5,6,7-hexahydropyrrolizin-8-yl]methoxy]-1,3,5-triazin-2-yl]spiro[6H-thieno[3,4-b]thiophene-4,3′-azetidine]-3-carbonitrile]: the results for the pIC50 in experiment [1] and in experiment [2] were 6.00 to 7.00 and 4.70 to 6.00, respectively.

With `N#Cc1c(N)sc2c1C1(CN(c3nc(OC[C@@]45CCCN4C[C@H](F)C5)nc(N(CC(=O)O)Cc4cccnc4N)n3)C1)SC2` [Compound 187, 2-[[4-(2-amino-3-cyano-spiro[6H-thieno[3,4-b]thiophene-4,3′-azetidine]-1′-yl)-6-[[(2R,8S)-2-fluoro-1,2,3,5,6,7-hexahydropyrrolizin-8-yl]methoxy]-1,3,5-triazin-2-yl]-[(2-amino-3-pyridyl)methyl]amino]acetic acid], the results for the pIC50 in experiment [1] and in experiment [2] were greater than 8.00 and 7.00 to 8.00, respectively.
